Laboratory results as given in EP0761672A1, “Cephalosporin containing in position 7 a substituted benzyloxyimino radical, processes for their preparation and intermediates for their preparation, their use as medicaments” (ROUSSEL UCLAF, priority 1995, dated 1997).
Converted amounts (≈) assume the structure as drawn.

What was measured:
Assay in all cases: In vitro activity, dilution method in solid medium (MIC)
Assay type in all cases: cell-based
[1] = test system: Enterobactéries Céfotaxime résistantes; details: 24 h, read-out: concentrations minimales inhibitrices (CMI), moyennes géométriques
Method: (§1) Activité in vitro, méthode des dilutions en milieu solide.
(§2) On prépare une série de boîtes dans lesquelles on répartit une même quantité de milieu nutritif stérile, contenant des quantités croissantes du produit à étudier puis chaque boîte est ensemencée avec plusieurs souches bactériennes.
(§3) Après incubation de 24 heures en étuve à 37°C, l'inhibition de la croissance est appréciée par l'absence de tout développement bactérien ce qui permet de déterminer les concentrations minimales inhibitrices (CMI) exprimées en microgrammes/cm^3.
(§4) Les résultats sont exprimés sous forme de moyennes géométriques de toutes les CMI obtenues, pour un groupe de souches particulier.

[2] = test system: Staphylocoques Pénicilline résistants; details: Staphylocoques Pénicilline résistants (22 souches); geometric mean of all MICs of the strain group; 24 h incubation at 37°C; read-out: concentrations minimales inhibitrices (CMI), moyennes géométriques
Method: as §1, §2, §3, §4

Pseudomonas aeruginosa = Pseudomonas aeruginosa (23 souches); geometric mean of all MICs of the strain group; 24 h incubation at 37°C; read-out: concentrations minimales inhibitrices (CMI), moyennes géométriques
Method: as §1, §2, §3, §4

For `Nc1nc(/C(=N/OCc2cc(Cl)c(O)c(O)c2Cl)C(=O)N[C@@H]2C(=O)N3C(C(=O)[O-])=C(/C=C/C[n+]4cccc5ccccc54)CS[C@H]23)cs1` [Exemple 1], the MIC [1] was 0.11 µg/mL (≈ 0.151 µM) and the MIC [2] was 0.78 µg/mL (≈ 1.07 µM).
`Nc1nc(/C(=N/OCc2cc(Cl)c(O)c(O)c2Cl)C(=O)N[C@@H]2C(=O)N3C(C(=O)[O-])=C(/C=C/C[n+]4ccn5ccccc54)CS[C@H]23)cs1` [Exemple 2] showed an MIC [1] of 0.19 µg/mL (≈ 0.265 µM), an MIC (Pseudomonas aeruginosa) of 0.42 µg/mL (≈ 0.586 µM) and an MIC [2] of 0.91 µg/mL (≈ 1.27 µM).
Work on `Nc1nc(/C(=N/OCc2cc(Cl)c(O)c(O)c2Cl)C(=O)N[C@@H]2C(=O)N3C(C(=O)[O-])=C(/C=C/C[n+]4cccc5c4CCC5)CS[C@H]23)cs1` [Exemple 3] yielded an MIC [1] of 0.13 µg/mL (≈ 0.181 µM), an MIC (Pseudomonas aeruginosa) of 0.26 µg/mL (≈ 0.362 µM) and an MIC [2] of 1.37 µg/mL (≈ 1.91 µM).
For `Nc1nc(/C(=N/OCc2cc(F)c(O)c(O)c2F)C(=O)N[C@@H]2C(=O)N3C(C(=O)[O-])=C(/C=C/C[n+]4cccc5ccccc54)CS[C@H]23)cs1` [Exemple 4], the MIC [1] was 0.38 µg/mL (≈ 0.547 µM), the MIC (Pseudomonas aeruginosa) was 0.14 µg/mL (≈ 0.202 µM) and the MIC [2] was 0.37 µg/mL (≈ 0.533 µM).
Molecule `Nc1nc(/C(=N/OCc2cc(F)c(O)c(O)c2F)C(=O)N[C@@H]2C(=O)N3C(C(=O)[O-])=C(/C=C/C[n+]4ccn5ccccc54)CS[C@H]23)cs1` [Exemple 5] has an MIC [1] of 0.26 µg/mL (≈ 0.38 µM) and an MIC [2] of 0.55 µg/mL (≈ 0.804 µM).
`Nc1nc(/C(=N/OCc2cc(F)c(O)c(O)c2F)C(=O)N[C@@H]2C(=O)N3C(C(=O)[O-])=C(/C=C/C[n+]4cccc5c4CCC5)CS[C@H]23)cs1` [Exemple 6] showed an MIC [1] of 0.36 µg/mL (≈ 0.526 µM), an MIC (Pseudomonas aeruginosa) of 1.12 µg/mL (≈ 1.64 µM) and an MIC [2] of 0.63 µg/mL (≈ 0.92 µM).
With `Nc1nc(/C(=N/OCc2cc(O)c(O)c(F)c2)C(=O)N[C@@H]2C(=O)N3C(C(=O)[O-])=C(/C=C/C[n+]4cccc5ccccc54)CS[C@H]23)cs1` [Exemple 7] the MIC [1] was 0.2 µg/mL (≈ 0.296 µM), the MIC (Pseudomonas aeruginosa) was 0.47 µg/mL (≈ 0.695 µM) and the MIC [2] was 0.3 µg/mL (≈ 0.443 µM).
`COC(=O)C(O/N=C(\C(=O)N[C@@H]1C(=O)N2C(C(=O)[O-])=C(/C=C/C[n+]3cccc4ccccc43)CS[C@H]12)c1csc(N)n1)c1cc(O)c(O)c(F)c1` (stereo partly drawn) [Exemple 8] gave an MIC (Pseudomonas aeruginosa) of 0.49 µg/mL (≈ 0.667 µM) and an MIC [2] of 0.3 µg/mL (≈ 0.408 µM).
